Measured values taken from paper PMC8577775, “Small molecule allosteric inhibitors of RORγt block Th17-dependent inflammation and associated gene expression in vivo” (PLoS ONE, 2021).

Tests used:
[1] = test system: IMQ-induced skin inflammation in Balb/c mice; experiment: Imiquimod (IMQ)-induced skin inflammation model; type: in vivo, mouse; settings: day 4; for ear thickness: control-treated 0.17 ± 0.002 mm
Protocol: For IMQ-induced skin inflammation, wild-type (WT) Balb/c female mice, 5–8 weeks of age, were purchased from Charles River Laboratories. All mice were housed in pathogen-free conditions at Bristol Myers Squibb (Cambridge, MA). Aldara cream containing 5% imiquimod (Patterson Veterinary Supply, Inc; Devens, MA) was applied to the ears daily (11–14 mg) for 3 days. Mice were treated twice daily (BID) on days 1–4 per os (PO) with vehicle (0.5% methylcellulose/0.25% Tween80) or RORγt inhibitors at indicated doses immediately prior to Aldara application. Ear thickness was measured using micro-calipers. Tissues were harvested on day 4, 2 hours following the last compound dose. Naïve mice are completely untreated, receiving neither control vehicle for IMQ nor Compound.
For RNA isolation & gene expression, ears are collected on day 4 in RNAlater (Qiagen) and stored at 4°C until processed. Ears were homogenized using Procellys 24 homogenizer & hard tissue homogenizing beads (Bertin Instruments), 2 cycles of 30 seconds @ 6000 rpm in RLT lysis buffer according to manufacturer’s instructions. RNA was isolated using RNAeasy Plus MiniPrep columns (Qiagen) and cDNA generated using SuperScript VILO cDNA Synthesis kit (Invitrogen). Gene expression was quantified using TaqMan Fast Master Mix & and TaqMan FAM-MGB probe sets (Applied Biosystems): Gapdh, Mm99999915_g1, Il17a, Mm00439618_m1, Il17f, Mm00521423_m1, Il22, Mm01226722_g1 & Bclxl, Mm00437783_m1. QPCR reactions were run on QuantStudio 7 instrument. Relative quantification and fold changes were calculated using ddCT values against Gapdh and normalized to control-treated animals. For PDAC xenografts, RNA was isolated from tumor sections using Qiagen RNeasy kit (cat#74106), then cDNA was prepared using 2 μg of RNA and the high capacity RNA to cDNA kit (Applied Biosystems, cat#4387406) as per manufacturer’s instructions. Biomarker expression was determined using Taqman gene expression probes (S1 Table) and Universal master mix (ThermoFisher Scientific cat#4305719) with expression levels normalized to Gapdh.
For cytokine production, ears are removed, split in half using forceps and floated, dermis side-down, in DMEM media (Gibco) and incubated at 37° C for 24 hours. Following incubation, media was removed and cytokine production assessed by Luminex assay (Bio-Rad Laboratories).

[2] = test system: MOG35-55-induced EAE in C57BL/6 mice; experiment: Experimental autoimmune encephalomyelitis (EAE) model; type: in vivo, mouse; settings: for EAE clinical score (0-5): vehicle peak 3.08 ± 0.28
Protocol: EAE studies were conducted at Hooke Laboratories. WT female C57BL/6 mice (Taconic Labs) 9 weeks of age were inoculated on day 0 with MOG35-55 peptide (Hooke Kit™ MOG35-55/CFA Emulsion PTX) (EK-2110, Hooke Laboratories, Lawrence MA) followed by intraperitoneal (IP) injections of pertussis toxin at 2 and 24 hours. Mice were treated twice daily (BID, starting at day 1) per os (PO) with vehicle (0.5% MC/0.25% Tween80) or RORγt inhibitors at indicated doses. FTY720 (Gilenya) was dosed once daily (QD) at 3 mg/kg starting at day 1. EAE clinical scores were evaluated daily and scored from 0–5 according to Hooke Lab EAE scoring guidelines http://hookelabs.com/services/cro/eae/MouseEAEscoring.html. Mean clinical scores & body weight loss were assessed and statistical significance calculated by Wilcoxon’s non-parametric or 2-tailed Student’s t-test, respectively. All studies performed were approved in accordance with the Institutional Animal Care and Use Committee of Bristol Myers Squibb and complied according to Bristol Myers Squibb guidelines.

[3] = Intra-tumoral compound concentration, KP/C mouse model; type: in vivo; settings: 16 hours post dosing, mean ± SD
Protocol: In the IMQ-induced inflammation model, whole blood (300–500 μL) was collected and centrifuged (1000 g x 10 min) at 20° C to obtain plasma samples. […] Plasma standard curves were prepared by adding each test compound in to mouse plasma and serial diluting to desired concentration. Blank tumor homogenate and blank plasma was add to plasma standards and tumor homogenate samples, respectively, at 1:1 (v:v) ratio for matrix match of tumor sample analysis. An aliquot of 50 μL of each plasma sample, each tumor sample and each corresponding standards was added to 200 μL of acetonitrile with 100 ng/mL of carbutamide (Sigma Aldrich, St. Louis, MO), internal standard (IS), for protein precipitation, then filtered through a 96-well Orochem filtration plate (Orochem Technologies Inc., Naperville IL). Each extracted test compound in resultant supernatant was analyzed with appropriate liquid chromatography column eluting to a Sciex QTRAP 6500+ LC/MS/MS system (Applied Biosystems, Foster City, CA). Each analyte was characterized by Turbo IonSpray ionization multiple reaction monitoring (MRM). Quantitative drug concentrations were determined by standard calibration curve analysis, using linear fitting with 1/x^2 weighted plot of the analyte/IS peak area ratio vs analyte concentration. […]

[4] = test system: KP/C pancreatic tumors in C57Bl/6 mice; experiment: In vivo tumor growth suppression, KP/C mouse model
Protocol: Pancreatic tumor chunks from KP/C mice [20] on C57Bl/6 background were inoculated subcutaneously in the flank of syngeneic mice. […] Tumor volumes and body weight were measured twice each week.
To test whether inhibition of RORγt can lead to tumor growth inhibition we utilized the Kras^G12D/+/Trp53^null/Pdx1-cre (KP/C) mouse model of pancreatic cancer [20]. C57Bl/6 mice were inoculated in the flank with KP/C tumor chunks and enrolled in the study when the average tumor volume reached 200 mm^3. […] To evaluate target engagement, we examined changes in expression of a subset of potential RORγt target genes in tumor samples.

tumor concentration ([3]; in combination with gemcitabine): 222 pmol/g
tumor concentration ([3]; single agent): 47 pmol/g
Structure (SMILES): O=C(O)[C@@H]1CCC(c2nn(C(=O)c3c(Cl)cccc3C(F)(F)F)c3cccc(F)c23)=C[C@H]1O [Compound 3]
ear thickness ([1]; 25 mg/kg PO): 0.163 ± 0.002 mm
ear thickness ([1]; 50 mg/kg PO): 0.156 ± 0.001 mm
ear thickness ([1]; 100 mg/kg PO): 0.143 ± 0.002 mm
Th17-cytokine gene expression in ear skin ([1]; 50 and 100 mg/kg dosed groups): reduced
Bclxl expression in skin tissues ([1]; oral administration, IMQ model): significantly reduced
EAE clinical score (0-5) ([2]; 3 mg/kg BID PO): 2.79 ± 0.25
EAE clinical score (0-5) ([2]; 10 mg/kg BID PO): 2.32 ± 0.21
significant disease onset ([2]; 30 mg/kg BID PO, vehicle day 12): 15 days
EAE clinical score (0-5) ([2]; 30 mg/kg BID PO): 1.5 ± 0.27
body weight loss in EAE ([2]; maintained for the duration of study): significant reductions in body weight loss
tumor volume, combination with gemcitabine ([4]; Compound 3 30mg/kg BID plus gemcitabine vs gemcitabine): no additional benefit
tumor volume ([4]; single agent vs vehicle, 28 days of dosing): not statistically significant
